{"source": "patent US5641805A", "about": "“Topical ophthalmic formulations for treating allergic eye diseases” (Alcon Laboratories, Inc., priority 1995, dated 1997)", "key": {"[1]": {"system": "Human Conjunctival Tissue Mast Cells", "test": "Compound effect on histamine release from human conjunctival tissue mast cells upon anti-human IgE challenge", "assay_type": "cell-based", "details": "for inhibition at 500 µM: * p < 0.05 Dunnett's, isomers not significantly different (p > 0.05 Studentized Range), read-out: Inhibition (%) of in-vitro histamine release, isomer comparison; for inhibition of human conjunctival mast cell degranulation: statement on Table 1", "protocol": "The inhibitory effects of reported anti-allergic, mast cell stabilizing drugs on mast cells obtained from human conjunctiva (the target cells for topical ophthalmic drug preparations claimed useful in treating allergic conjunctivitis) were tested according to the following experimental method. Human conjunctival tissues obtained from organ/tissue donors were weighed and transferred to petri dishes containing RPMI 1640 culture medium supplemented with heat inactivated fetal bovine serum (20%, v/v), L-glutamine (2 mM), penicillin (100 units/ml), streptomycin (100 μg/ml), amphotericin B (2.5 μg/ml) and HEPES (10 mM) and equilibrated overnight at 37° C. (5% CO2).\nPost equilibration, tissues were placed in Tyrode's buffer (in mM: 137 NaCl, 2.7 KCl, 0.35 Na H2 PO4, 1.8 CaCl2, 0.98 MgCl2, 11.9 Na HCO3, 5.5 glucose) containing 0.1% gelatin (TGCM) and incubated with 200 U each of collagenase (Type IV) and hyaluronidase (Type I-S) per gram of tissue for 30 minutes at 37° C. Following enzyme digestion, tissues were washed with an equal volume of TGCM over Nitex® filter cloth (Tetko, Briarcliff Manor, N.Y.). Intact tissues were placed in TGCM for further enzymatic digestions.\nThe flitrate obtained from each digestion was centrifuged (825 g, 7 minutes) and pelleted cells were resuspended in calcium/magnesium free Tyrode's buffer (TG). Pooled cells from all digestions were centrifuged (825 g, 30 minutes) over a […] Percoll® cushion. Mast cell enriched cell pellets were resuspended and washed in TG buffer. Viability and number of mast cells were determined by vital dye exclusion and toluidine blue 0 staining of the harvested cell suspensions. Mast cell containing preparations were placed in supplemented RPMI 1640 culture medium and allowed to equilibrate at 37° C. prior to challenge with anti-human IgE (goat derived IgG antibody).\nCell suspensions containing 5000 mast cells were added to TGCM containing tubes and challenged with anti-human IgE. The final volume of each reaction tube was 1.0 mL. Tubes were incubated at 37° C. for 15 minutes post challenge. The release reaction was terminated by centrifugation (500 g, 7 minutes). Supernatants were collected and stored (-20° C.) until mediator analyses.\nInitially, supernatants were analyzed for histamine content by both the automated fluorimetric method described by Siraganian, \"An Automated Continuous Flow System for the Extraction and Fluorometric Analysis of Histamine,\" Anal. Biochem., Vol. 57, 383-94 (1974), and a commercially available radioimmunoassay (RIA) system (AMAC, Inc., Westbrook, Me.). Results from these assays were positively correlated (r=0.999): therefore, the remainder of histamine analyses were performed by RIA.\nEach experiment included an anti-human IgE (plus vehicle) positive release control, a spontaneous/vehicle release and a total histamine release control. Total histamine release was determined by treatment with Triton X-100® (0.1%). The experiments also included a non-specific goat IgG control. Test compounds are administered to the mast cell cultures either 1 or 15 minutes before stimulation with anti-human IgE. Inhibition of histamine release resulting from challenge of drug treated mast cells was determined by direct comparison with histamine release from vehicle treated, anti-IgE challenged mast cells using Dunnett's t-test (Dunnett, \"A multiple comparison procedure for comparing treatments with a control, \" J. Amer. Stat Assoc., Vol. 50, 1096-1121 (1955)).\nDunnett's t-test, is a statistical test which compares multiple treatment groups with one control group. In the assay described above, histamine released from drug treated mast cells are compared to histamine released from the anti-human IgE plus vehicle treated mast cells which serve as the positive control. Statistically significant inhibition is determined using this procedure. The probability level of 0.05 is accepted as the level of significance in biomedical research. […]"}, "rat conjunctiva": {"system": "rat conjunctiva", "details": "0.1 % strength", "from_the_text": "This assay indicates whether a topically applied compound effectively prevents or decreases the local allergic response in the conjunctiva. This assay allows an assessment of bioavailability following topical dosing. Briefly, male Sprague Dawley rats (6/group) were passively sensitized by subconjunctival injection of a rat serum containing IgE specific for ovalbumin (OA). Twenty-four hours post sensitization, test compound prepared in saline (0.9% NaCl) or saline vehicle was applied topically onto the sensitized eye. Twenty (20) minutes after dosing, rats were challenged intravenously via the lateral tail vein with 1.0 ml of a solution containing OA (1.0 mg/ml) and Evans Blue dye (2.5 mg/ml). Thirty (30) minutes post antigen challenge, animals were killed, skin was reflected, and the size of the resulting wheal and the intensity of the extravasated dye were determined."}, "human skin mast cells": {"system": "human skin mast cells", "details": "cited from earlier work"}, "[2]": {"system": "mast cells obtained from bronchoalveolar lavage fluid", "details": "100 μM; cited from earlier work"}, "rodent mast cell": {"system": "rodent mast cell", "details": "cited from earlier work"}, "[3]": {"details": "Homo sapiens, Mast cell, 0.25 h, treatment 15 min"}, "[4]": {"details": "Homo sapiens, Mast cell, 1 min, treatment 1 min"}, "[5]": {"details": "Homo sapiens, Mast cell, 0.25 h, treatment 15 min, * p < 0.05 Dunnett's t-test"}}, "data": [{"smiles": "CN(C)CC/C=C1/c2ccccc2COc2ccc(CC(=O)O)cc21", "note": "[Compound A (cis), Z-11-(3-dimethylaminopropylidene)-6,11-dihydrodibenz[b,e]oxepin-2-acetic acid]", "values": [{"measurement": "inhibition at 500 µM", "setting": "[1]; [3]", "result": 29.7, "unit": "%"}, {"measurement": "inhibition of human conjunctival mast cell degranulation", "setting": "[1]", "result": "concentration-dependent inhibition of mast cell degranulation"}]}, {"smiles": "CN(C)CCC=C1c2ccccc2COc2ccc(/C=C\\C(=O)O)cc21", "note": "[Compound C, (Z)11-(3-Dimethylaminopropylidene)-6,11-dihydrodibenz[b,e]oxepin2-acrylic acid]", "values": [{"measurement": "% Change (permeability score)", "setting": "rat conjunctiva", "result": -53, "unit": "%"}]}, {"smiles": "CN(C)CC/C=C1\\c2ccccc2COc2ccc(CC(=O)O)cc21", "note": "[Compound A (trans), E-11-(3-dimethylaminopropylidene)-6,11-dihydrodibenz[b,e]oxepin-2-acetic acid]", "values": [{"measurement": "inhibition at 500 µM", "setting": "[1]; [3]", "result": 26.2, "unit": "%"}]}, {"smiles": "O=C(O)c1cc(=O)c2c(OCC(O)COc3cccc4oc(C(=O)O)cc(=O)c34)cccc2o1", "note": "[Cromolyn sodium]", "values": [{"measurement": "inhibition of histamine release from human skin mast cells", "setting": "human skin mast cells", "result": "not inhibited at all"}, {"measurement": "inhibition at 10 µM", "setting": "[1]; [4]", "result": -0.9, "unit": "%"}, {"measurement": "inhibition at 30 µM", "setting": "[1]; [4]", "result": 0.1, "unit": "%"}, {"measurement": "inhibition at 100 µM", "setting": "[1]; [4]", "result": 1.2, "unit": "%"}, {"measurement": "inhibition at 300 µM", "setting": "[1]; [4]", "result": -1.8, "unit": "%"}, {"measurement": "inhibition at 1000 µM", "setting": "[1]; [4]", "result": -9.4, "unit": "%"}, {"measurement": "inhibition at 10 µM", "setting": "[1]; [3]", "result": 10.6, "unit": "%"}, {"measurement": "inhibition at 30 µM", "setting": "[1]; [3]", "result": 1.8, "unit": "%"}, {"measurement": "inhibition at 100 µM", "setting": "[1]; [5]", "result": -1.2, "unit": "%"}, {"measurement": "inhibition at 300 µM", "setting": "[1]; [5]", "result": -6.9, "unit": "%"}, {"measurement": "inhibition at 1000 µM", "setting": "[1]; [5]", "result": -15.4, "unit": "%"}, {"measurement": "inhibition of human conjunctival mast cell degranulation", "setting": "[1]", "result": "failed to significantly inhibit human conjunctival mast cell degranulation"}, {"measurement": "inhibition of mast cells from bronchoalveolar lavage fluid", "setting": "[2]", "result": "inhibited"}, {"measurement": "inhibition of rodent mast cell degranulation", "setting": "rodent mast cell", "result": "inhibit rodent mast cell degranulation"}]}, {"smiles": "CN(C)CC/C=C1/c2ccccc2COc2ccc(CC(=O)O)cc21", "note": "[Compound A, 11-(3-dimethylaminopropylidene)-6,11-dihydrodibenz[b,e]oxepin-2-acetic acid]", "values": [{"measurement": "inhibition at 30 µM", "setting": "[1]; [3]", "result": -3.9, "unit": "%"}, {"measurement": "inhibition at 100 µM", "setting": "[1]; [5]", "result": 13, "unit": "%"}, {"measurement": "inhibition at 300 µM", "setting": "[1]; [5]", "result": 29.6, "unit": "%"}, {"measurement": "inhibition at 600 µM", "setting": "[1]; Homo sapiens, Mast cell, 0.25 h, 600 μM, treatment 15 min, * p < 0.05 Dunnett's t-test", "result": 47.5, "unit": "%"}, {"measurement": "inhibition at 1000 µM", "setting": "[1]; [5]", "result": 66.7, "unit": "%"}, {"measurement": "inhibition at 2000 µM", "setting": "[1]; Mast cell, 2000 μM, treatment 15 min before anti-human IgE, * p < 0.05 Dunnett's t-test", "result": 92.6, "unit": "%"}]}, {"smiles": "CCCc1c2oc(C(=O)O)cc(=O)c2cc2c(=O)cc(C(=O)O)n(CC)c12", "note": "[Nedocromil sodium]", "values": [{"measurement": "inhibition at 0.1 µM", "setting": "[1]; [4]", "result": 17.4, "unit": "%"}, {"measurement": "inhibition at 0.3 µM", "setting": "[1]; [4]", "result": 8.8, "unit": "%"}, {"measurement": "inhibition at 1 µM", "setting": "[1]; [4]", "result": 4.8, "unit": "%"}, {"measurement": "inhibition at 3 µM", "setting": "[1]; [4]", "result": 0.8, "unit": "%"}, {"measurement": "inhibition at 10 µM", "setting": "[1]; [4]", "result": -6.5, "unit": "%"}, {"measurement": "inhibition at 30 µM", "setting": "[1]; [4]", "result": -0.9, "unit": "%"}, {"measurement": "inhibition at 100 µM", "setting": "[1]; [4]", "result": 6.7, "unit": "%"}, {"measurement": "inhibition at 300 µM", "setting": "[1]; [4]", "result": 4, "unit": "%"}, {"measurement": "inhibition at 1000 µM", "setting": "[1]; [4]", "result": -1.1, "unit": "%"}, {"measurement": "inhibition at 0.1 µM", "setting": "[1]; [3]", "result": 8.7, "unit": "%"}, {"measurement": "inhibition at 0.3 µM", "setting": "[1]; [3]", "result": 3.7, "unit": "%"}, {"measurement": "inhibition at 1 µM", "setting": "[1]; [3]", "result": 10.7, "unit": "%"}, {"measurement": "inhibition at 3 µM", "setting": "[1]; [3]", "result": 13.2, "unit": "%"}, {"measurement": "inhibition at 10 µM", "setting": "[1]; [3]", "result": 9.2, "unit": "%"}, {"measurement": "inhibition at 30 µM", "setting": "[1]; [3]", "result": 15.2, "unit": "%"}, {"measurement": "inhibition at 100 µM", "setting": "[1]; [5]", "result": 28.2, "unit": "%"}, {"measurement": "inhibition at 300 µM", "setting": "[1]; [5]", "result": 11.3, "unit": "%"}, {"measurement": "inhibition at 1000 µM", "setting": "[1]; [5]", "result": 7.2, "unit": "%"}, {"measurement": "inhibition of human conjunctival mast cell degranulation", "setting": "[1]", "result": "failed to significantly inhibit human conjunctival mast cell degranulation"}]}, {"smiles": "CN(C)CC/C=C1/c2ccccc2COc2ccc(C(=O)O)cc21", "note": "[Compound B, (Z)11-(3-Dimethylaminopropylidene)-6,11-dihydrodibenz[b,e]oxepin2-carboxylic acid]", "values": [{"measurement": "% Change (permeability score)", "setting": "rat conjunctiva", "result": -55, "unit": "%"}]}]}
